US6525001B1, “Substituted pyrimidine and pyridine herbicides” (Mid-American Commercialization Corporation, priority 1997, dated 2003)

Tests used:
Format in all cases: in vivo
[1] = tested on: cocklebur (Xanthium strumarium); assay: Test C; set-up: key: 0 was no effect; 100 was complete control
[2] = tested on: field bindweed (Convolvulus arvensis); assay: Test C; set-up: key: 0 was no effect; 100 was complete control
[3] = tested on: johnsongrass (Sorghum halepense); assay: Test C
[4] = tested on: redroot pigweed (Amaranthus retroflexus); assay: Test C; set-up: key: 0 was no effect; 100 was complete control
[5] = tested on: Spanishneedles (Bidens bipinnata); assay: Test E pre-/postemergence/post directed
How it was run: (§1)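 Injury was scored visually on a 0 to 100 scale (100 = complete control) 13 to 21 days after treatment of greenhouse-grown plants. Test chemicals, in a surfactant-containing non-phytotoxic solvent, were sprayed onto soil within a day of planting, onto plants at the two to four leaf stage, or directed at the base of the plants.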

[6] = tested on: alexandergrass (Brachiaria plantaginea); assay: Test E pre-/postemergence/post directed
How it was run: as §1

[7] = tested on: bermudagrass (Cynodon dactylon); assay: Test E pre-/postemergence/post directed
How it was run: as §1

[8] = tested on: common groundsel (Senecio vulgaris); assay: Test E pre-/postemergence/post directed
How it was run: as §1

[9] = tested on: common ragweed (Ambrosia elatior); assay: Test E pre-/postemergence/post directed
How it was run: as §1

[10] = tested on: itchgrass (Rottboellia exaltata); assay: Test E pre-/postemergence/post directed
How it was run: as §1

[11] = tested on: johnson grass (Sorghum halepense); assay: Test E pre-/postemergence/post directed
How it was run: as §1

[12] = tested on: large crabgrass (Digitaria sanguinalis); assay: Test E pre-/postemergence/post directed
How it was run: as §1

[13] = tested on: pitted morningglory (Ipomoea lacunosa); assay: Test E pre-/postemergence/post directed
How it was run: as §1

[14] = tested on: sandbur (Cenchrus echinatus); assay: Test E pre-/postemergence/post directed; conditions: PREEMERGENCE
How it was run: as §1

[15] = tested on: surinam grass (Brachiaria decumbens); assay: Test E pre-/postemergence/post directed
How it was run: as §1

[16] = tested on: bermudagrass (Cynodon dactylon); assay: Test E pre-/postemergence/post directed; set-up: key: 0 is no effect; 100 is complete control; conditions: PREEMERGENCE
How it was run: as §1

[17] = tested on: common purslane (Portulaca oleracea); assay: Test E pre-/postemergence/post directed; set-up: key: 0 is no effect; 100 is complete control
How it was run: as §1

[18] = tested on: common ragweed (Ambrosia elatior); assay: Test E pre-/postemergence/post directed; set-up: key: 0 is no effect; 100 is complete control; conditions: PREEMERGENCE
How it was run: as §1

[19] = tested on: goosegrass (Eleusine indica); assay: Test E pre-/postemergence/post directed; set-up: key: 0 is no effect; 100 is complete control
How it was run: as §1

[20] = tested on: large crabgrass (Digitaria sanguinalis); assay: Test E pre-/postemergence/post directed; set-up: key: 0 is no effect; 100 is complete control; conditions: PREEMERGENCE
How it was run: as §1

[21] = tested on: surinam grass (Brachiaria decumbens); assay: Test E pre-/postemergence/post directed; set-up: key: 0 is no effect; 100 is complete control; conditions: PREEMERGENCE, Rate 250 g/ha
How it was run: as §1

In the case of `Cc1cnc(-c2ccc(C(F)(F)F)cc2)nc1Cn1ccc(C(F)(F)F)n1` [compound 9], the “Plant response rating, Cocklebur” value ([1]; POSTEMERGENCE, Rate 35 g/ha) is reported as 60, the “Plant response rating, Cocklebur” value ([1]; POSTEMERGENCE, Rate 70 g/ha) is reported as 80 and the “Plant response rating, Cocklebur” value ([1]; POSTEMERGENCE, Rate 140 g/ha) is reported as 80. The “Plant response rating, Cocklebur” value ([1]; PREEMERGENCE, Rate 35 g/ha) was 0, the “Plant response rating, Cocklebur” value ([1]; PREEMERGENCE, Rate 70 g/ha) was 0 and the “Plant response rating, Cocklebur” value ([1]; PREEMERGENCE, Rate 140 g/ha) was 0. The “Plant response rating, Field bindweed” value ([2]; POSTEMERGENCE, Rate 35 g/ha) was 60, the “Plant response rating, Field bindweed” value ([2]; POSTEMERGENCE, Rate 70 g/ha) was 70 and the “Plant response rating, Field bindweed” value ([2]; POSTEMERGENCE, Rate 140 g/ha) was 80. For the same molecule, the “Plant response rating, Field bindweed” value ([2]; PREEMERGENCE, Rate 35 g/ha) was 50, the “Plant response rating, Field bindweed” value ([2]; PREEMERGENCE, Rate 70 g/ha) was 100 and the “Plant response rating, Field bindweed” value ([2]; PREEMERGENCE, Rate 140 g/ha) was 90. The “Plant response rating, Johnsongrass” value ([3]; POSTEMERGENCE, Rate 35 g/ha) was 10, the “Plant response rating, Johnsongrass” value ([3]; POSTEMERGENCE, Rate 140 g/ha) was 50 and the “Plant response rating, Johnsongrass” value ([3]; PREEMERGENCE, Rate 35 g/ha) was 65. The “Plant response rating, Johnsongrass” value ([3]; PREEMERGENCE, Rate 70 g/ha) was 85, the “Plant response rating, Johnsongrass” value ([3]; PREEMERGENCE, Rate 140 g/ha) was 95 and the “Plant response rating, Redroot pigweed” value ([4]; POSTEMERGENCE, Rate 35 g/ha) was 60. For the same molecule, the “Plant response rating, Redroot pigweed” value ([4]; POSTEMERGENCE, Rate 70 g/ha) was 70, the “Plant response rating, Redroot pigweed” value ([4]; PREEMERGENCE, Rate 35 g/ha) was 100 and the “Plant response rating, Redroot pigweed” value ([4]; PREEMERGENCE, Rate 70 g/ha) was 100. The “Plant response rating, Redroot pigweed” value ([4]; PREEMERGENCE, Rate 140 g/ha) was 100, the “Plant response rating, Spanishneedles” value ([5]; POSTEMERGENCE, Rate 125 g/ha) was 10 and the “Plant response rating, Spanishneedles” value ([5]; POSTEMERGENCE, Rate 250 g/ha) was 15. The “Plant response rating, Spanishneedles” value ([5]; PREEMERGENCE, Rate 64 g/ha) was 20, the “Plant response rating, Spanishneedles” value ([5]; PREEMERGENCE, Rate 125 g/ha) was 30 and the “Plant response rating, Spanishneedles” value ([5]; PREEMERGENCE, Rate 250 g/ha) was 60. For the same molecule, the “Plant response rating, Alexandergrass” value ([6]; POSTEMERGENCE, Rate 125 g/ha) was 10, the “Plant response rating, Alexandergrass” value ([6]; POSTEMERGENCE, Rate 250 g/ha) was 10 and the “Plant response rating, Alexandergrass” value ([6]; PREEMERGENCE, Rate 32 g/ha) was 30. For the same molecule, the “Plant response rating, Alexandergrass” value ([6]; PREEMERGENCE, Rate 64 g/ha) was 65, the “Plant response rating, Alexandergrass” value ([6]; PREEMERGENCE, Rate 125 g/ha) was 65 and the “Plant response rating, Bermudagrass” value ([7]; POSTEMERGENCE, Rate 125 g/ha) was 10. The “Plant response rating, Bermudagrass” value ([7]; POSTEMERGENCE, Rate 250 g/ha) was 10, the “Plant response rating, Bermudagrass” value ([7]; PREEMERGENCE, Rate 32 g/ha) was 70 and the “Plant response rating, Bermudagrass” value ([7]; PREEMERGENCE, Rate 64 g/ha) was 98. The “Plant response rating, Com. groundsel” value ([8]; POSTEMERGENCE, Rate 125 g/ha) was 25, the “Plant response rating, Com. groundsel” value ([8]; POSTEMERGENCE, Rate 250 g/ha) was 30 and the “Plant response rating, Com. groundsel” value ([8]; PREEMERGENCE, Rate 32 g/ha) was 98. For the same molecule, the “Plant response rating, Com. ragweed” value ([9]; POSTEMERGENCE, Rate 125 g/ha) was 10, the “Plant response rating, Com. ragweed” value ([9]; POSTEMERGENCE, Rate 250 g/ha) was 10 and the “Plant response rating, Com. ragweed” value ([9]; PREEMERGENCE, Rate 32 g/ha) was 10. The “Plant response rating, Com. ragweed” value ([9]; PREEMERGENCE, Rate 125 g/ha) was 98, the “Plant response rating, Itchgrass” value ([10]; POSTEMERGENCE, Rate 125 g/ha) was 30 and the “Plant response rating, Itchgrass” value ([10]; POSTEMERGENCE, Rate 250 g/ha) was 30. For the same molecule, the “Plant response rating, Itchgrass” value ([10]; PREEMERGENCE, Rate 64 g/ha) was 85, the “Plant response rating, Johnsongrass” value ([11]; POSTEMERGENCE, Rate 125 g/ha) was 85 and the “Plant response rating, Johnsongrass” value ([11]; POSTEMERGENCE, Rate 250 g/ha) was 85. The “Plant response rating, Johnsongrass” value ([11]; PREEMERGENCE, Rate 32 g/ha) was 55, the “Plant response rating, Johnsongrass” value ([11]; PREEMERGENCE, Rate 64 g/ha) was 75 and the “Plant response rating, Johnsongrass” value ([11]; PREEMERGENCE, Rate 125 g/ha) was 85. The “Plant response rating, Johnsongrass” value ([11]; PREEMERGENCE, Rate 250 g/ha) was 90, the “Plant response rating, Large crabgrass” value ([12]; POSTEMERGENCE, Rate 125 g/ha) was 5 and the “Plant response rating, Large crabgrass” value ([12]; POSTEMERGENCE, Rate 250 g/ha) was 10. For the same molecule, the “Plant response rating, Large crabgrass” value ([12]; PREEMERGENCE, Rate 32 g/ha) was 70, the “Plant response rating, P. morninglory” value ([13]; POSTEMERGENCE, Rate 125 g/ha) was 40 and the “Plant response rating, P. morninglory” value ([13]; POSTEMERGENCE, Rate 250 g/ha) was 50. The “Plant response rating, P. morninglory” value ([13]; PREEMERGENCE, Rate 32 g/ha) was 45, the “Plant response rating, P. morninglory” value ([13]; PREEMERGENCE, Rate 64 g/ha) was 60 and the “Plant response rating, P. morninglory” value ([13]; PREEMERGENCE, Rate 125 g/ha) was 75. For the same molecule, the “Plant response rating, Sandbur” value ([14]; Rate 125 g/ha) was 10, the “Plant response rating, Sandbur” value ([14]; Rate 250 g/ha) was 20 and the “Plant response rating, Surinam grass” value ([15]; POSTEMERGENCE, Rate 125 g/ha) was 10. For the same molecule, the “Plant response rating, Surinam grass” value ([15]; POSTEMERGENCE, Rate 250 g/ha) was 10, the “Plant response rating, Surinam grass” value ([15]; PREEMERGENCE, Rate 64 g/ha) was 10 and the “Plant response rating, Surinam grass” value ([15]; PREEMERGENCE, Rate 125 g/ha) was 20. The “Plant response rating, Bermudagrass” value ([16]; Rate 125 g/ha) was 100, the “Plant response rating, Bermudagrass” value ([16]; Rate 250 g/ha) was 100 and the “Plant response rating, Com. purslane” value ([17]; POSTEMERGENCE, Rate 125 g/ha) was 80. For the same molecule, the “Plant response rating, Com. purslane” value ([17]; POSTEMERGENCE, Rate 250 g/ha) was 80, the “Plant response rating, Com. purslane” value ([17]; PREEMERGENCE, Rate 32 g/ha) was 100 and the “Plant response rating, Com. purslane” value ([17]; PREEMERGENCE, Rate 64 g/ha) was 100. For the same molecule, the “Plant response rating, Com. purslane” value ([17]; PREEMERGENCE, Rate 125 g/ha) was 100, the “Plant response rating, Com. purslane” value ([17]; PREEMERGENCE, Rate 250 g/ha) was 100 and the “Plant response rating, Com. ragweed” value ([18]; Rate 64 g/ha) was 100. For the same molecule, the “Plant response rating, Com. ragweed” value ([18]; Rate 250 g/ha) was 100, the “Plant response rating, Goosegrass” value ([19]; POSTEMERGENCE, Rate 125 g/ha) was 5 and the “Plant response rating, Goosegrass” value ([19]; POSTEMERGENCE, Rate 250 g/ha) was 10. For the same molecule, the “Plant response rating, Goosegrass” value ([19]; PREEMERGENCE, Rate 32 g/ha) was 90, the “Plant response rating, Goosegrass” value ([19]; PREEMERGENCE, Rate 64 g/ha) was 100 and the “Plant response rating, Goosegrass” value ([19]; PREEMERGENCE, Rate 125 g/ha) was 100. For the same molecule, the “Plant response rating, Goosegrass” value ([19]; PREEMERGENCE, Rate 250 g/ha) was 100, the “Plant response rating, Large crabgrass” value ([20]; Rate 64 g/ha) was 100 and the “Plant response rating, Large crabgrass” value ([20]; Rate 125 g/ha) was 100. For the same molecule, the “Plant response rating, Large crabgrass” value ([20]; Rate 250 g/ha) was 100 and the “Plant response rating, Surinam grass” value [21] was 100.
